Assay results as given in patent US20170305943A1, “COMPOUNDS FOR THE TREATMENT OF BACTERIAL INFECTIONS” (priority 2014, published 2017).
≈ marks a conversion by molar mass, not a printed value.

How the values were obtained:
Assay in all cases: Bacterial Assay: Determination of Antibacterial Activity (MIC, broth microdilution or agar dilution)
Type in all cases: cell-based
[1] = tested on: Clostridium difficile (Isolate ID 027-01); conditions: Clostridioides difficile, 48 h, read-out: MIC (μg/mL) C. difficile (027-01)
How it was run: (§1)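 MICs were set by CLSI broth microdilution or agar dilution for anaerobes, read visually after 48 hours at 37° C. under anaerobic gas packs. Medium was reinforced clostridial medium with 0.1% defibrinated horse blood; values are binned as A ≦1.01, B >1.0-4.0, C >4.0-16 μg/mL.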

[2] = tested on: Clostridium difficile (Isolate ID ATCC 9689); conditions: Clostridioides difficile, ATCC9689, 48 h, read-out: C. difficile MIC Activity Range
How it was run: as §1

[3] = tested on: Clostridium difficile (Isolate ID BI-9); conditions: Clostridioides difficile, 48 h, read-out: MIC (μg/mL) C. difficile (B-I9)
How it was run: as §1

Structure (SMILES)	MIC [1]	MIC [2]	MIC [3]
NC(=O)c1c(F)ccc(OCCCCCCOc2ccc(Cl)cc2)c1F [Compound 133, 3-{[6-(4-chlorophenoxy)hexyl]oxy}-2,6-difluorobenzamide]	0.5 µg/mL (≈ 1.3 µM)	< 1.01 µg/mL	0.5 µg/mL (≈ 1.3 µM)
NC(=O)c1c(F)ccc(OCc2nc(-c3ccc(OC(F)(F)F)cc3)ns2)c1F [Compound 20, 2,6-difluoro-3-({3[4-(trifluoromethoxy)phenyl]-1,2,4-thiadiazol-5-yl}methoxy)benzamide]	0.06 µg/mL (≈ 0.139 µM)	< 1.01 µg/mL	0.06 µg/mL (≈ 0.139 µM)
Cc1sc(COc2ccc(F)c(C(N)=O)c2F)nc1-c1ccc(Cl)cc1 [Compound 189, 3-{[4-(4-chlorophenyl)-5-methyl-1,3-thiazol-2-yl]methoxy}-2,6-difluorobenzamide]	1 µg/mL (≈ 2.53 µM)	< 1.01 µg/mL	1 µg/mL (≈ 2.53 µM)
COc1ncc(-c2csc(COc3ccc(F)c(C(N)=O)c3F)n2)s1 [Compound 207, 2,6-difluoro-3-[(2′-methoxy-4,5′-bi-1,3-thiazol-2-yl)methoxy]benzamide]	4 µg/mL (≈ 10.4 µM)	1 to 4 µg/mL (≈ 2.61 to 10.4 µM)	4 µg/mL (≈ 10.4 µM)
CN(CCCCOc1ccc(OC(F)(F)F)cc1)c1ccc(F)c(C(N)=O)c1F [Compound 152, 2,6-difluoro-3-(methyl{4-[4-(trifluoromethoxy)phenoxy]butyl}amino) benzamide]	0.5 µg/mL (≈ 1.2 µM)	< 1.01 µg/mL	0.5 µg/mL (≈ 1.2 µM)
C#CCCCCCCCCCOc1cccc(C(N)=O)c1F [Compound 9, 2-fluoro-3-(undec-10-yn-1-yloxy)benzamide]	1 µg/mL (≈ 3.27 µM)	< 1.01 µg/mL	0.5 µg/mL (≈ 1.64 µM)
NC(=O)c1c(F)ccc(OCCOCCOc2ccc(Cl)cc2)c1F [Compound 136, 3-{2-[2-(4-chlorophenoxy)ethoxy]ethoxy}-2,6-difluorobenzamide]	4 µg/mL (≈ 10.8 µM)	1 to 4 µg/mL (≈ 2.69 to 10.8 µM)	4 µg/mL (≈ 10.8 µM)
C#CCCCCCCCCCOc1ccc(F)c(C(N)=O)c1F [Compound 7, 2,6-difluoro-3-(undec-10-yn-1-yloxy)benzamide]	0.12 µg/mL (≈ 0.371 µM)	< 1.01 µg/mL	0.12 µg/mL (≈ 0.371 µM)
NC(=O)c1c(F)ccc(OCc2nc(-c3ccc(S(F)(F)(F)(F)F)cc3)ns2)c1F [Compound 110, 2,6-difluoro-3-({3-[4-(pentafluoro-lambda~6~- sulfanyl)phenyl]-1,2,4-thiadiazol-5-yl}methoxy)benzamide]	0.06 µg/mL (≈ 0.127 µM)	< 1.01 µg/mL	0.06 µg/mL (≈ 0.127 µM)
Cc1nn(C)cc1CNC(=O)OCC(Oc1ccc(F)c(C(N)=O)c1F)c1nc(-c2ccc(C(F)(F)F)cc2)c(Br)o1 (stereo not shown) [Compound 81, 2-{5-bromo-4-[4-(trifluoromethyl)phenyl]-1,3-oxazol-2-yl}-2-(3-carbamoyl-2,4-difluorophenoxy)ethyl [(1,3-dimethyl-1H-pyrazol-4-yl)methyl]carbamate]		< 1.01 µg/mL	
NC(=O)c1c(F)ccc(OCCCCOc2ccc(Cl)cn2)c1F [Compound 143, 3-{4-[(5-chloropyridin-2-yl)oxy]butoxy}-2,6-difluorobenzamide]		< 1.01 µg/mL	
NC(=O)c1c(F)ccc(OCCCCOc2ccc(C(F)(F)F)nc2)c1F [Compound 144, 2,6-difluoro-3-(4-{[6-(trifluoromethyl)pyridin-3-yl]oxy}butoxy)benzamide]		1 to 4 µg/mL (≈ 2.56 to 10.2 µM)	
Cc1nnc(CNC(=O)OCC(Oc2ccc(F)c(C(N)=O)c2F)c2nc(-c3ccc(C(F)(F)F)cc3)c(Br)o2)o1 (stereo not shown) [Compound 65, 2-{5-bromo-4-[4-(trifluoromethyl)phenyl]-1,3-oxazol-2-yl}-2-(3-carbamoyl-2,4-difluorophenoxy)ethyl [(5-methyl-1,3,4-oxadiazol-2-yl)methyl]carbamate]		1 to 4 µg/mL (≈ 1.55 to 6.19 µM)	
Cc1c(CNC(=O)OCC(Oc2ccc(F)c(C(N)=O)c2F)c2nc(-c3ccc(C(F)(F)F)cc3)c(Br)o2)cnn1C (stereo not shown) [Compound 82, 2-{5-bromo-4-[4-(trifluoromethyl)phenyl]-1,3-oxazol-2-yl}-2-(3-carbamoyl-2,4-difluorophenoxy)ethyl [(1,5-dimethyl-1H-pyrazol-4-yl)methyl]carbamate]		< 1.01 µg/mL	
COc1ncc(-c2csc(C(C)Oc3ccc(F)c(C(N)=O)c3F)n2)s1 (stereo not shown) [Compound 23, 2,6-difluoro-3-[1-(2′-methoxy-4,5′-bi-1,3-thiazol-2-yl)ethoxy]benzamide]		4 to 16 µg/mL (≈ 10.1 to 40.3 µM)	
COc1ccc(CNC(=O)OCC(Oc2ccc(F)c(C(N)=O)c2F)c2nc(-c3ccc(C(F)(F)F)cc3)c(Br)o2)cn1 (stereo not shown) [Compound 83, 2-{5-bromo-4-[4-(trifluoromethyl)phenyl]-1,3-oxazol-2-yl}-2-(3-carbamoyl-2,4-difluorophenoxy)ethyl [(6-methoxypyridin-3-yl)methyl]carbamate]		< 1.01 µg/mL	
NC(=O)c1c(F)ccc(NCCCCOc2ccc(OC(F)(F)F)cc2)c1F [Compound 150, 2,6-difluoro-3-({4-[4-(trifluoromethoxy)phenoxy]butyl}amino) benzamide]		1 to 4 µg/mL (≈ 2.47 to 9.89 µM)	
NC(=O)c1c(F)ccc(O[C@@H](CO)c2nc(-c3ccc(C(F)(F)F)cc3)c(Br)o2)c1F [Compound 41, 3-[(1S)-1-{5-bromo-4-[4-(trifluoromethyl)phenyl]-1,3-oxazol-2-yl}-2-hydroxyethoxy]-2,6-difluorobenzamide]		1 to 4 µg/mL (≈ 1.97 to 7.89 µM)	
NC(=O)c1c(F)ccc(OC(COC(=O)CN2C(=O)c3ccccc3C2=O)c2nc(-c3ccc(C(F)(F)F)cc3)c(Br)o2)c1F (stereo not shown) [Compound 38, 2-{5-bromo-4-[4-(trifluoromethyl)phenyl]-1,3-oxazol-2-yl}-2-(3-carbamoyl-2,4-difluorophenoxy)ethyl (1,3-dioxo-1,3-dihydro-2H-isoindo1-2-yl)acetate]		< 1.01 µg/mL	
Cc1cc(CNC(=O)OCC(Oc2ccc(F)c(C(N)=O)c2F)c2nc(-c3ccc(C(F)(F)F)cc3)c(Br)o2)ccn1 (stereo not shown) [Compound 78, 2-{5-bromo-4-[4-(trifluoromethyl)phenyl]-1,3-oxazol-2-yl}-2-(3-carbamoyl-2,4-difluorophenoxy)ethyl [(2-methylpyridin-4-yl)methyl]carbamate]		< 1.01 µg/mL	
NC(=O)c1c(F)ccc(OC(COC(=O)NCCn2ccccc2=O)c2nc(-c3ccc(C(F)(F)F)cc3)c(Br)o2)c1F (stereo not shown) [Compound 92, 2-{5-bromo-4-[4-(trifluoromethyl)phenyl]-1,3-oxazol-2-yl}-2-(3-carbamoyl-2,4-difluorophenoxy)ethyl [2-(2-oxopyridin-1(2H)-yl)ethyl]carbamate]		1 to 4 µg/mL (≈ 1.49 to 5.96 µM)	
COCCNC(=O)OCC(Oc1ccc(F)c(C(N)=O)c1F)c1nc(-c2ccc(C(F)(F)F)cc2)c(Br)o1 (stereo not shown) [Compound 60, 2-{5-bromo-4-[4-(trifluoromethyl)phenyl]-1,3-oxazol-2-yl}-2-(3-carbamoyl-2,4-difluorophenoxy)ethyl (2-methoxyethyl)carbamate]		< 1.01 µg/mL	
NC(=O)c1c(F)ccc(OCCCCOc2ccc(F)cc2F)c1F [Compound 162, 3-[4-(2,4-difluorophenoxy)butoxy]-2,6-difluorobenzamide]		1 to 4 µg/mL (≈ 2.8 to 11.2 µM)	
NC(=O)c1c(F)ccc(OCCCCOc2cccc(F)c2)c1F [Compound 167, 2,6-difluoro-3-[4-(3-fluorophenoxy)butoxy] benzamide]		1 to 4 µg/mL (≈ 2.95 to 11.8 µM)	
NC(=O)c1c(F)ccc(N(CCCCOc2ccc(OC(F)(F)F)cc2)CC(=O)O)c1F [Compound 187, N-(3-carbamoyl-2,4-difluorophenyl)-N-{4-[4-(trifluoromethoxy)phenoxy]butyl}glycine]		4 to 16 µg/mL (≈ 8.65 to 34.6 µM)	
